# Assay results as given in PubChem BioAssay (NCI).
#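 Cultured in 96-well plates, cells were exposed to test compound for 48 hours across five concentrations. Abbreviation: GI50, concentration required for 50% inhibition of growth. TGI is the concentration that stops growth completely.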
# How the values were obtained:
# Experiment in all cases: NCI-60 cell line screen, 48 h
# [1] = tested on: HOP-92 NSCLC
# [2] = tested on: MDA-MB-231 breast
# [3] = tested on: OVCAR-4 ovarian
# [4] = tested on: A549 NSCLC
# [5] = tested on: HCT-15 colon
# [6] = tested on: HL-60(TB) leukemia
# [7] = tested on: UACC-62 melanoma
# [8] = tested on: MALME-3M melanoma
# [9] = tested on: SK-MEL-5 melanoma
# [10] = tested on: PC-3 prostate
# [11] = tested on: SNB-75 CNS
# [12] = tested on: SK-MEL-28 melanoma
# [13] = tested on: NCI-H522 lung
# [14] = tested on: T-47D breast
# [15] = tested on: NCI-H460 lung
# [16] = tested on: HS 578T breast
# [17] = tested on: NCI-H226 lung
# [18] = tested on: RXF 393 renal
# [19] = tested on: MDA-MB-435
# [20] = tested on: U251 CNS
# [21] = tested on: MCF7 breast
# [22] = tested on: UACC-257 melanoma
# [23] = tested on: NCI-H23 lung
# [24] = tested on: CAKI-1 renal
# [25] = tested on: NCI/ADR-RES ovarian
# [26] = tested on: A498 renal
# [27] = tested on: TK-10 renal
# [28] = tested on: M14 melanoma
# [29] = tested on: COLO 205 colon
# [30] = tested on: HCT-116 colon
# [31] = tested on: SF-295 CNS
# [32] = tested on: RPMI-8226 leukemia
# [33] = tested on: SF-268 CNS
# [34] = tested on: OVCAR-3 ovarian
# [35] = tested on: SF-539 CNS
# [36] = tested on: IGROV1 ovarian
# [37] = tested on: 786-0 renal
# [38] = tested on: K-562 leukemia
# [39] = tested on: HT29 colon
# [40] = tested on: SR leukemia
# [41] = tested on: SN12C renal
# [42] = tested on: SK-OV-3 ovarian
# [43] = tested on: OVCAR-5 ovarian
# [44] = tested on: SK-MEL-2 melanoma
# [45] = tested on: LOX IMVI melanoma
# [46] = tested on: DU-145 prostate
# [47] = tested on: UO-31 renal
# [48] = tested on: KM12 colon
# [49] = tested on: MOLT-4 leukemia
# [50] = tested on: SW-620 colon
# [51] = tested on: HOP-62 NSCLC
# [52] = tested on: ACHN renal
# [53] = tested on: SNB-19 CNS
# [54] = tested on: BT-549 breast
# [55] = tested on: OVCAR-8 ovarian
# [56] = tested on: EKVX NSCLC
# [57] = tested on: CCRF-CEM leukemia
# [58] = tested on: HCC-2998 colon
compound,measurement,setting,value
O=C(CC(Cl)(Cl)C(Cl)(Cl)Cl)c1ccccc1,TGI,[1],59.5 µM
same,TGI,[2],5.48 µM
same,TGI,[3],5.67 µM
same,TGI,[4],39.1 µM
same,TGI,[5],4.56 µM
same,TGI,[6],29.9 µM
same,TGI,[7],6.56 µM
same,TGI,[8],8.91 µM
same,TGI,[9],24.3 µM
same,TGI,[10],29.1 µM
same,TGI,[11],29.3 µM
same,TGI,[12],5.3 µM
same,TGI,[13],7.3 µM
same,TGI,[14],7.08 µM
same,TGI,[15],32.5 µM
same,TGI,[16],56.2 µM
same,TGI,[17],16.2 µM
same,TGI,[18],4.25 µM
same,TGI,[19],5.34 µM
same,TGI,[20],18.3 µM
same,TGI,[21],23.6 µM
same,TGI,[22],3.81 µM
same,TGI,[23],20.5 µM
same,TGI,[24],4.39 µM
same,TGI,[25],43.9 µM
same,TGI,[26],34.6 µM
same,TGI,[27],18.4 µM
same,TGI,[28],7.4 µM
same,TGI,[29],13.2 µM
same,TGI,[30],4.91 µM
same,TGI,[31],19.4 µM
same,TGI,[32],6.09 µM
same,TGI,[33],55.4 µM
same,TGI,[34],4.33 µM
same,TGI,[35],31.3 µM
same,TGI,[36],18.3 µM
same,TGI,[37],11.4 µM
same,TGI,[38],4.57 µM
same,TGI,[39],4.72 µM
same,TGI,[40],4.37 µM
same,TGI,[41],3.09 µM
same,TGI,[42],38.2 µM
same,TGI,[43],25.8 µM
same,TGI,[44],32.3 µM
same,TGI,[45],3.74 µM
same,TGI,[46],15.1 µM
same,TGI,[47],14.5 µM
same,TGI,[48],14.8 µM
same,TGI,[49],5.02 µM
same,TGI,[50],12.2 µM
same,TGI,[51],16.4 µM
same,TGI,[52],5.29 µM
same,TGI,[53],39.2 µM
same,TGI,[54],39.9 µM
same,TGI,[55],8.53 µM
COc1cnc2c(c1)C(=O)c1c-2n(CCCBr)c(=O)c2cc([N+](=O)[O-])ccc12,GI50,[1],1.77 µM
same,TGI,[1],13.7 µM
same,GI50,[2],2.58 µM
same,TGI,[2],31.5 µM
same,GI50,[3],0.686 µM
same,TGI,[3],9.17 µM
same,GI50,[4],0.347 µM
same,TGI,[4],6.85 µM
same,GI50,[5],0.35 µM
same,TGI,[5],15.3 µM
same,GI50,[6],0.31 µM
same,TGI,[6],53 µM
same,GI50,[7],0.0821 µM
same,TGI,[7],1.48 µM
same,GI50,[8],0.352 µM
same,TGI,[8],2.02 µM
same,GI50,[9],0.224 µM
same,TGI,[9],0.533 µM
same,GI50,[10],0.314 µM
same,TGI,[10],11.7 µM
same,GI50,[11],0.43 µM
same,TGI,[11],13.8 µM
same,GI50,[12],1.52 µM
same,TGI,[12],12 µM
same,GI50,[13],0.433 µM
same,TGI,[13],8.46 µM
same,GI50,[14],0.233 µM
same,TGI,[14],3.19 µM
same,GI50,[15],0.0407 µM
same,TGI,[15],0.699 µM
same,GI50,[16],2.55 µM
same,TGI,[16],40.1 µM
same,GI50,[17],0.499 µM
same,TGI,[17],3.75 µM
same,GI50,[56],1.27 µM
same,TGI,[56],10.7 µM
same,GI50,[18],0.364 µM
same,TGI,[18],2.43 µM
same,GI50,[19],0.474 µM
same,TGI,[19],5.04 µM
same,GI50,[20],0.101 µM
same,TGI,[20],3.98 µM
same,GI50,[21],0.0459 µM
same,TGI,[21],1.2 µM
same,GI50,[57],0.0575 µM
same,TGI,[57],17.8 µM
same,GI50,[22],0.597 µM
same,TGI,[22],4.39 µM
same,GI50,[58],0.386 µM
same,TGI,[58],10.2 µM
same,GI50,[23],0.218 µM
same,TGI,[23],4.27 µM
same,GI50,[24],0.0459 µM
same,TGI,[24],3.05 µM
same,GI50,[25],0.187 µM
same,TGI,[25],12.4 µM
same,GI50,[27],2 µM
same,TGI,[27],16.3 µM
same,GI50,[28],0.14 µM
same,TGI,[28],2.12 µM
same,GI50,[29],0.259 µM
same,TGI,[29],2.41 µM
same,GI50,[30],0.0849 µM
same,TGI,[30],1.7 µM
same,GI50,[31],0.0709 µM
same,TGI,[31],0.852 µM
same,GI50,[32],0.301 µM
same,TGI,[32],4.7 µM
same,GI50,[33],0.158 µM
same,TGI,[33],9.3 µM
same,GI50,[34],0.248 µM
same,TGI,[34],1.05 µM
same,GI50,[35],0.279 µM
same,TGI,[35],1.07 µM
same,GI50,[36],0.163 µM
same,TGI,[36],2.35 µM
same,GI50,[37],0.223 µM
same,TGI,[37],0.716 µM
same,GI50,[38],0.255 µM
same,TGI,[38],> 100 µM
same,GI50,[39],0.202 µM
same,TGI,[39],23.1 µM
same,GI50,[40],0.0378 µM
same,TGI,[40],> 100 µM
same,GI50,[41],0.269 µM
same,TGI,[41],3.48 µM
same,GI50,[42],0.312 µM
same,TGI,[42],7.74 µM
same,GI50,[43],1.19 µM
same,TGI,[43],10.2 µM
same,GI50,[44],2.04 µM
same,TGI,[44],6.31 µM
same,GI50,[45],0.075 µM
same,TGI,[45],0.549 µM
same,GI50,[46],0.2 µM
same,TGI,[46],9.09 µM
same,GI50,[47],0.0566 µM
same,TGI,[47],1.51 µM
same,GI50,[48],0.375 µM
same,TGI,[48],8.77 µM
same,GI50,[49],0.052 µM
same,TGI,[49],10.2 µM
same,GI50,[50],0.0607 µM
same,TGI,[50],5.13 µM
same,GI50,[51],0.0578 µM
same,TGI,[51],2.6 µM
same,GI50,[52],0.0878 µM
same,TGI,[52],3.14 µM
same,GI50,[53],0.282 µM
same,TGI,[53],18.7 µM
same,GI50,[54],0.519 µM
same,TGI,[54],9.89 µM
same,GI50,[55],0.364 µM
same,TGI,[55],7.21 µM
